Assay results: ChEMBL document CHEMBL3868595, “Plazomicin is effective in a non-human primate pneumonic plague model” (Bioorg Med Chem, 2016)

Assays:
[1] = test system: African green monkey; assay: Toxicity in African green monkey 7643 model infected with Yersinia pestis Colorado 92 assessed as serum creatinine level at 25 mg/kg, iv administered within 6 hrs post onset of sustained fever as 30 mins infusion for 10 days (reference value: 0.5 mg/dl); format: organism-based; details: chlorocebus sabaeus, in vivo
[2] = test system: African green monkey; assay: Toxicity in African green monkey B6140 model infected with Yersinia pestis Colorado 92 assessed as blood urea nitrogen level at 25 mg/kg, iv administered within 6 hrs post onset of sustained fever as 30 mins infusion for 10 days (reference value: 24 mg/dl); format: organism-based; details: chlorocebus sabaeus, in vivo
[3] = test system: African green monkey; assay: Toxicity in African green monkey 7643 model infected with Yersinia pestis Colorado 92 assessed as blood urea nitrogen level at 25 mg/kg, iv administered within 6 hrs post onset of sustained fever as 30 mins infusion for 10 days (reference value: 16 mg/dl); format: organism-based; details: chlorocebus sabaeus, in vivo
[4] = Toxicity in African green monkey 7929 model infected with Yersinia pestis Colorado 92 assessed as total white blood cell count at 25 mg/kg, iv administered within 6 hrs post onset of sustained fever as 30 mins infusion for 10 days (reference value: 10.9 10^3/microL); format: organism-based; details: chlorocebus aethiops, in vivo
[5] = test system: Yersinia pestis; assay: Antibacterial activity against Yersinia pestis Colorado 92 infected in African green monkey C2083 model assessed as bacterial burden in kidney at 12.5 mg/kg, iv administered within 6 hrs post onset of sustained fever as 30 mins infusion for 5 days (reference value: 7.1 10^7CFU/g); format: functional, CO92
[6] = AUC (0 to 24 hrs) in African green monkey blood at 25 mg/kg administered as iv infusion twice daily for 7 consecutive days measured on day 1 by LC-MS/MS analysis; format: ADME, organism-based; design: dose 25 mg/kg, time < 24 hr, route intravenous; details: chlorocebus aethiops
[7] = test system: Yersinia pestis; assay: Antibacterial activity against Yersinia pestis Colorado 92 infected in African green monkey B6872 model assessed as bacterial burden in blood at 25 mg/kg, iv administered within 6 hrs post onset of sustained fever as 30 mins infusion for 5 days (reference value: 1.2 10^7CFU/ml); format: functional, organism-based; details: CO92
[8] = test system: African green monkey; assay: Toxicity in African green monkey 8067 model infected with Yersinia pestis Colorado 92 assessed as serum creatinine level at 25 mg/kg, iv administered within 6 hrs post onset of sustained fever as 30 mins infusion for 10 days (reference value: 0.8 mg/dl); format: organism-based; details: chlorocebus sabaeus, in vivo
[9] = test system: Yersinia pestis; assay: Antibacterial activity against Yersinia pestis Colorado 92 infected in African green monkey B6873 model assessed as bacterial burden in heart at 12.5 mg/kg, iv administered within 6 hrs post onset of sustained fever as 30 mins infusion for 5 days (reference value: 2.6 10^7CFU/g); format: functional, organism-based; details: CO92
[10] = test system: African green monkey; assay: Toxicity in African green monkey 7337 model infected with Yersinia pestis Colorado 92 assessed as serum creatinine level at 25 mg/kg, iv administered within 6 hrs post onset of sustained fever as 30 mins infusion for 10 days (reference value: 0.7 mg/dl); format: organism-based; details: chlorocebus sabaeus, in vivo
[11] = test system: African green monkey; assay: Toxicity in African green monkey B6127 model infected with Yersinia pestis Colorado 92 assessed as inappetence at 25 mg/kg, iv administered within 6 hrs post onset of sustained fever as 30 mins infusion for 10 days; format: organism-based; details: chlorocebus sabaeus, in vivo
[12] = test system: African green monkey; assay: Toxicity in African green monkey 7337 model infected with Yersinia pestis Colorado 92 assessed as serum alanine aminotransferase level at 25 mg/kg, iv administered within 6 hrs post onset of sustained fever as 30 mins infusion for 10 days (reference value: 55 IU/L); format: organism-based; details: chlorocebus sabaeus, in vivo
[13] = Volume of distribution at steady state in African green monkey blood at 35 mg/kg administered as iv infusion twice daily for 7 consecutive days measured on day 7 by LC-MS/MS analysis; format: ADME, organism-based; details: chlorocebus aethiops, read-out: Vdss
[14] = test system: African green monkey; assay: Toxicity in African green monkey 7653 model infected with Yersinia pestis Colorado 92 assessed as serum alanine aminotransferase level at 25 mg/kg, iv administered within 6 hrs post onset of sustained fever as 30 mins infusion for 10 days (reference value: 50 IU/L); format: organism-based; details: chlorocebus sabaeus, in vivo
[15] = test system: Yersinia pestis; assay: Antibacterial activity against Yersinia pestis Colorado 92 infected in African green monkey B6783 model assessed as bacterial burden in spleen at 12.5 mg/kg, iv administered within 6 hrs post onset of sustained fever as 30 mins infusion for 5 days (reference value: 1.6 10^9CFU/g); format: functional, CO92
[16] = test system: African green monkey; assay: Toxicity in African green monkey B6127 model infected with Yersinia pestis Colorado 92 assessed as elevation of blood urea nitrogen at 25 mg/kg, iv administered within 6 hrs post onset of sustained fever as 30 mins infusion for 10 days; format: organism-based; details: chlorocebus sabaeus, in vivo
[17] = test system: African green monkey; assay: Toxicity in African green monkey assessed as effect on serum creatinine level at 35 mg/kg administered as iv infusion twice daily for 7 consecutive days measured on day 7 by LC-MS/MS analysis; format: organism-based; details: chlorocebus sabaeus, in vivo
[18] = test system: African green monkey; assay: Toxicity in African green monkey B6428 model infected with Yersinia pestis Colorado 92 assessed as serum alanine aminotransferase level at 25 mg/kg, iv administered within 6 hrs post onset of sustained fever as 30 mins infusion for 10 days (reference value: 83 IU/L); format: organism-based; details: chlorocebus sabaeus, in vivo
[19] = test system: Yersinia pestis; assay: Antibacterial activity against Yersinia pestis Colorado 92 infected in African green monkey B6873 model assessed as bacterial burden in spleen at 12.5 mg/kg, iv administered within 6 hrs post onset of sustained fever as 30 mins infusion for 5 days (reference value: 1.6 10^9CFU/g); format: functional, organism-based; details: CO92
[20] = Toxicity in African green monkey B6291 model infected with Yersinia pestis Colorado 92 assessed as total white blood cell count at 25 mg/kg, iv administered within 6 hrs post onset of sustained fever as 30 mins infusion for 10 days (reference value: 12 10^3/microL); format: organism-based; details: chlorocebus aethiops, in vivo
[21] = test system: African green monkey; assay: Toxicity in African green monkey B6428 model infected with Yersinia pestis Colorado 92 assessed as blood urea nitrogen level at 25 mg/kg, iv administered within 6 hrs post onset of sustained fever as 30 mins infusion for 10 days (reference value: 16 mg/dl); format: organism-based; details: chlorocebus sabaeus, in vivo
[22] = test system: Yersinia pestis; assay: Antibacterial activity against Yersinia pestis Colorado 92 infected in African green monkey assessed as survival of monkey at 6.25 mg/kg, iv administered within 6 hrs post onset of sustained fever as 30 mins infusion for 5 days; format: functional; details: CO92, iv
[23] = test system: African green monkey; assay: Toxicity in African green monkey B6408 model infected with Yersinia pestis Colorado 92 assessed as blood urea nitrogen level at 25 mg/kg, iv administered within 6 hrs post onset of sustained fever as 30 mins infusion for 10 days (reference value: 22 mg/dl); format: organism-based; details: chlorocebus sabaeus, in vivo
[24] = test system: African green monkey; assay: Toxicity in African green monkey 7972 model infected with Yersinia pestis Colorado 92 assessed as serum lactate dehydrogenase level at 25 mg/kg, iv administered within 6 hrs post onset of sustained fever as 30 mins infusion for 10 days (reference value: 381 IU/L); format: organism-based; details: chlorocebus sabaeus, in vivo
[25] = test system: African green monkey; assay: Toxicity in African green monkey assessed as effect on serum creatinine level at 35 mg/kg administered as iv infusion twice daily for 7 consecutive days measured on day 1 by LC-MS/MS analysis; format: organism-based; details: chlorocebus sabaeus, in vivo
[26] = test system: African green monkey; assay: Toxicity in African green monkey B6291 model infected with Yersinia pestis Colorado 92 assessed as serum alanine aminotransferase level at 25 mg/kg, iv administered within 6 hrs post onset of sustained fever as 30 mins infusion for 10 days (reference value: 47 IU/L); format: organism-based; details: chlorocebus sabaeus, in vivo
[27] = test system: Yersinia pestis; assay: Antibacterial activity against Yersinia pestis Colorado 92 infected in African green monkey B6106 model assessed as bacterial burden in brain at 25 mg/kg, iv administered within 6 hrs post onset of sustained fever as 30 mins infusion for 5 days (reference value: 1.9 10^6CFU/g); format: functional, CO92

CN[C@@H]1[C@@H](O)[C@@H](O[C@@H]2[C@@H](O)[C@H](O[C@H]3OC(CNCCO)=CC[C@H]3N)[C@@H](N)C[C@H]2NC(=O)[C@@H](O)CCN)OC[C@]1(C)O [PLAZOMICIN]
Activity [1]: 0.4 mg/dL | Activity [2]: 27 mg/dL | Activity [3]: 19 mg/dL | Activity [4]: 8.5 ×10³ /uL | Activity [5]: 3.1 ×10⁶ CFU/g | AUC(0-t) at 24 h [6]: 185 µg·h/mL | Activity [7]: Below limit of detection | Activity [8]: 0.8 mg/dL | Activity [9]: Below limit of detection | Activity [10]: 0.5 mg/dL | Activity [11]: Toxic | Activity [12]: 44 IU/L | Vd [13]: 0.31 L/kg | Activity [14]: 48 IU/L | Activity [15]: 10 CFU/g | Activity [16]: Toxic | Activity [17]: 0.6 mg/dL | Activity [18]: 60 IU/L | Activity [19]: Below limit of detection | Activity [20]: 5.9 ×10³ /uL | Activity [21]: 26 mg/dL | survival at 6.25 mg/kg [22]: 17% | Activity [23]: 20 mg/dL | Activity [24]: 398 IU/L | Activity [25]: 0.6 mg/dL | Activity [26]: 68 IU/L | Activity [27]: 6.4 ×10⁷ CFU/g
